Assay results reported in paper PMC7894522, “Structure Based Design of Bicyclic Peptide Inhibitors of RbAp48” (Angewandte Chemie (International Ed. in English), 2020).
Where two headings read alike, the source gives them in different places. Starred links: 1 amine or outer side, 2 acyl side, 3 side chain; linkers in the order of their positions; H or OH if unused. Positions of bridges follow the written chain, without caps; N, C: chain ends. Residues, ends and D or L forms follow the SMILES beside them. Pyridine(2,6-diCH2) = c1cc(C[*:1])nc(C[*:2])c1; mXylylene = c1cc(C[*:1])cc(C[*:2])c1; oXylylene = c1ccc(C[*:2])c(C[*:1])c1; pXylylene = c1cc(C[*:2])ccc1C[*:1]

Biological target: RbAp48 (Homo sapiens, UniProt Q09028)
Sequence (Q09028 whole entry): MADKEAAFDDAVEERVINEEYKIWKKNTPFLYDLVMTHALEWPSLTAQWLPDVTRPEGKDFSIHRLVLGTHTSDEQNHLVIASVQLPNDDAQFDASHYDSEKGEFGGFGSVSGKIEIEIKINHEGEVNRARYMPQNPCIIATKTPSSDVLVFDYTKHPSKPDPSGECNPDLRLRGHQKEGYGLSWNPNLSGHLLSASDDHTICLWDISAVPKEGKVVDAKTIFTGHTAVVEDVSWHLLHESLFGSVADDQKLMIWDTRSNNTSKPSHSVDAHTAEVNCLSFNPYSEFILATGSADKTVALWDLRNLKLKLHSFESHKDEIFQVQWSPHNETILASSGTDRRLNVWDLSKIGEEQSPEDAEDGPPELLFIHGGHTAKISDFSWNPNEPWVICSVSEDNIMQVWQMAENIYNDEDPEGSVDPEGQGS
Test: Competitive fluorescence polarization (FP) assay using complex of peptide 1 and RbAp48
Assay type: binding
Set-up: Full length RbAp48 was cloned; His tag followed by 3C cleavage site (N, cleaved yes); made in house; host or cells: Sf9 insect cells
Settings: competitive FP, RbAp48 15 nM, read-out: IC50
Procedure: The binding affinity of our library of synthetic cyclic peptides was evaluated by a competitive fluorescence polarization (FP) assay using a complex formed by peptide 1 and RbAp48. To reduce the length of the peptide it was truncated to the amino acids which seemed most critical according to the crystal structure (residues 676–689, pdb:4pbz). […] We chose to use a cyclization approach to regain affinity, that is, not to induce more interactions but through minimizing the entropic penalty upon binding by reducing the flexibility of the peptide. To this end two amino acids were chosen which are facing one another in the structure (see Figure 1 B/D/E). Two peptides were designed where glutamic acid was used in position 676 (4) or position 680 (5) and lysine in position 688 for both peptides (see Table 1). The macrocycles were formed by connecting the side chains via an amide bond (see Figure 1 D/E). Peptide synthesis was performed on Rink‐amide resin using the Fmoc‐strategy incorporating Fmoc‐L‐Glu(All)‐OH and Fmoc‐L‐Lys(Alloc)‐OH at the sites for cyclization. After completion of the linear synthesis the allyl protecting groups were removed using Pd^0 catalysis and the amide link was formed by using PyBOP. […] Therefore, a range of peptides was synthesized which were cyclized using the same amino acid positions but via a cysteine alkylation strategy (see Figure 1 D/E and Table 1). In this method the residues used for cyclization are replaced with cysteine and benzylic dibromides act as crosslinkers on the unprotected peptides. ^[11] Previous research has shown that such linkers can effectively stabilize cyclic peptides and yield high affinity ligands for protein–protein interaction inhibition. ^[12] Such a linker introduces a xylene group in close vicinity of the hydrophobic patch potentially reconstituting the lost key hydrophobic interactions. To explore a variety of macrocycle conformations we used either ortho‐, meta‐ or para‐substituted dibromides to exchange the linker in both 4 and 5 (see Figure 1 D/E and Table 1). ^[13]
Protein expression and purification
RbAp48 was expressed and purified by the Dortmund Protein Facility. Full length RbAp48 was cloned into a pOPIN vector ligating it to an N-terminal His tag followed by a 3C cleavage site. The protein was expressed from Sf9 cells for 48 h. Cells were harvested and lysed and the protein was purified by loading onto a HisTrap FF crude 5 ml column followed by on-column cleavage using Precission protease. The cleaved protein was then further purified using a HiLoad 26/60 Superdex 200 column.
Fluorescence polarization assay
Fluorescence polarization assays were performed in 384 wells plates in 80 µl volumes. The assay buffer contains 20 mM Tris-HCl, 150 mM NaCl, 0.01% Tween-20 at pH 7.5. The concentration of the fluorescently labelled peptides was 1 nM plates were incubated at room temperature for 30 min before they were read on a Tecan Spark plate reader (λex = 485 nm, λem = 535 nm).
For competitive assays the same conditions were used with a tracer concentration of 1 nM was used and a protein concentration of 15 nM .

[1] = Table 1, tracer peptide 1 1 nM, 20 mM Tris-HCl, 150 mM NaCl, 0.01% Tween-20, pH 7.5, 30 min room temperature, lower limit set by 15 nM protein
[2] = Supplemental Table 2, tracer 1 nM, pH 7.5, 30 min room temperature

IC50 [1] [nM] | IC50 [2] [nM] | SMILES
47.7 ± 12.5 |  | CC(=O)N[C@H]1CCC(=O)NCCCC[C@@H](C(=O)N[C@@H](C)C(N)=O)NC(=O)[C@@H]2CCCN2C(=O)[C@H](CCCCN)NC(=O)[C@H](Cc2ccc(O)cc2)NC(=O)[C@@H]2CCCN2C(=O)[C@H](CCCNC(=N)N)NC(=O)[C@H](CCCNC(=N)N)NC(=O)[C@H](C)NC(=O)[C@H](C)NC(=O)[C@H](CCCNC(=N)N)NC(=O)[C@H](CCCCN)NC(=O)[C@H]([C@@H](C)O)NC1=O [Peptide 4] (Ac-ETKRAARRPYKPKA-NH2; lactam 1-13)
126 ± 32.3 |  | CC(=O)N[C@@H](CCC(=O)O)C(=O)N[C@H](C(=O)N[C@@H](CCCCN)C(=O)N[C@@H](CCCNC(=N)N)C(=O)N[C@H]1CCC(=O)NCCCC[C@@H](C(=O)N[C@@H](C)C(N)=O)NC(=O)[C@@H]2CCCN2C(=O)[C@H](CCCCN)NC(=O)[C@H](Cc2ccc(O)cc2)NC(=O)[C@@H]2CCCN2C(=O)[C@H](CCCNC(=N)N)NC(=O)[C@H](CCCNC(=N)N)NC(=O)[C@H](C)NC1=O)[C@@H](C)O [Peptide 5] (Ac-ETKREARRPYKPKA-NH2; lactam 5-13)
77.4 ± 6.5 |  | CC(=O)N[C@H]1CSCc2ccccc2CSC[C@@H](C(=O)N[C@@H](C)C(N)=O)NC(=O)[C@@H]2CCCN2C(=O)[C@H](CCCCN)NC(=O)[C@H](Cc2ccc(O)cc2)NC(=O)[C@@H]2CCCN2C(=O)[C@H](CCCNC(=N)N)NC(=O)[C@H](CCCNC(=N)N)NC(=O)[C@H](C)NC(=O)[C@H](C)NC(=O)[C@H](CCCNC(=N)N)NC(=O)[C@H](CCCCN)NC(=O)[C@H]([C@@H](C)O)NC1=O [Peptide 6] (Ac-CTKRAARRPYKPCA-NH2; linker 1-13 via oXylylene)
18.7 ± 4.1 |  | CC(=O)N[C@H]1CSCc2cccc(c2)CSC[C@@H](C(=O)N[C@@H](C)C(N)=O)NC(=O)[C@@H]2CCCN2C(=O)[C@H](CCCCN)NC(=O)[C@H](Cc2ccc(O)cc2)NC(=O)[C@@H]2CCCN2C(=O)[C@H](CCCNC(=N)N)NC(=O)[C@H](CCCNC(=N)N)NC(=O)[C@H](C)NC(=O)[C@H](C)NC(=O)[C@H](CCCNC(=N)N)NC(=O)[C@H](CCCCN)NC(=O)[C@H]([C@@H](C)O)NC1=O [Peptide 7] (Ac-CTKRAARRPYKPCA-NH2; linker 1-13 via mXylylene)
34.9 ± 14 |  | CC(=O)N[C@H]1CSCc2cccc(n2)CSC[C@@H](C(=O)N[C@@H](C)C(N)=O)NC(=O)[C@@H]2CCCN2C(=O)[C@H](CCCCN)NC(=O)[C@H](Cc2ccc(O)cc2)NC(=O)[C@@H]2CCCN2C(=O)[C@H](CCCNC(=N)N)NC(=O)[C@H](CCCNC(=N)N)NC(=O)[C@H](C)NC(=O)[C@H](C)NC(=O)[C@H](CCCNC(=N)N)NC(=O)[C@H](CCCCN)NC(=O)[C@H]([C@@H](C)O)NC1=O [Peptide 9] (Ac-CTKRAARRPYKPCA-NH2; linker 1-13 via Pyridine(2,6-diCH2))
322 ± 56.8 |  | CC(=O)N[C@@H](CCC(=O)O)C(=O)N[C@H](C(=O)N[C@@H](CCCCN)C(=O)N[C@@H](CCCNC(=N)N)C(=O)N[C@H]1CSCc2ccccc2CSC[C@@H](C(=O)N[C@@H](C)C(N)=O)NC(=O)[C@@H]2CCCN2C(=O)[C@H](CCCCN)NC(=O)[C@H](Cc2ccc(O)cc2)NC(=O)[C@@H]2CCCN2C(=O)[C@H](CCCNC(=N)N)NC(=O)[C@H](CCCNC(=N)N)NC(=O)[C@H](C)NC1=O)[C@@H](C)O [Peptide 10] (Ac-ETKRCARRPYKPCA-NH2; linker 5-13 via oXylylene)
388 ± 69.8 |  | CC(=O)N[C@@H](CCC(=O)O)C(=O)N[C@H](C(=O)N[C@@H](CCCCN)C(=O)N[C@@H](CCCNC(=N)N)C(=O)N[C@H]1CSCc2cccc(c2)CSC[C@@H](C(=O)N[C@@H](C)C(N)=O)NC(=O)[C@@H]2CCCN2C(=O)[C@H](CCCCN)NC(=O)[C@H](Cc2ccc(O)cc2)NC(=O)[C@@H]2CCCN2C(=O)[C@H](CCCNC(=N)N)NC(=O)[C@H](CCCNC(=N)N)NC(=O)[C@H](C)NC1=O)[C@@H](C)O [Peptide 11] (Ac-ETKRCARRPYKPCA-NH2; linker 5-13 via mXylylene)
2340 ± 363 |  | CC(=O)N[C@@H](CCC(=O)O)C(=O)N[C@H](C(=O)N[C@@H](CCCCN)C(=O)N[C@@H](CCCNC(=N)N)C(=O)N[C@H]1CSCc2ccc(cc2)CSC[C@@H](C(=O)N[C@@H](C)C(N)=O)NC(=O)[C@@H]2CCCN2C(=O)[C@H](CCCCN)NC(=O)[C@H](Cc2ccc(O)cc2)NC(=O)[C@@H]2CCCN2C(=O)[C@H](CCCNC(=N)N)NC(=O)[C@H](CCCNC(=N)N)NC(=O)[C@H](C)NC1=O)[C@@H](C)O [Peptide 12] (Ac-ETKRCARRPYKPCA-NH2; linker 5-13 via pXylylene)
147 ± 10.7 |  | CC(=O)N[C@@H](CCC(=O)O)C(=O)N[C@H](C(=O)N[C@@H](CCCCN)C(=O)N[C@@H](CCCNC(=N)N)C(=O)N[C@H]1CSCc2cccc(n2)CSC[C@@H](C(=O)N[C@@H](C)C(N)=O)NC(=O)[C@@H]2CCCN2C(=O)[C@H](CCCCN)NC(=O)[C@H](Cc2ccc(O)cc2)NC(=O)[C@@H]2CCCN2C(=O)[C@H](CCCNC(=N)N)NC(=O)[C@H](CCCNC(=N)N)NC(=O)[C@H](C)NC1=O)[C@@H](C)O [Peptide 13] (Ac-ETKRCARRPYKPCA-NH2; linker 5-13 via Pyridine(2,6-diCH2))
 | > 10000 | CC[C@H](C)[C@H](NC(=O)[C@@H]1CCCN1C(=O)[C@H](CC(C)C)NC(=O)[C@H](Cc1ccc(O)cc1)NC(=O)[C@@H]1CCCN1C(=O)[C@H](Cc1c[nH]cn1)NC(=O)[C@H](CCCNC(=N)N)NC(=O)[C@H](C)NC(=O)[C@H](C)NC(=O)[C@H](Cc1c[nH]cn1)NC(=O)[C@H](Cc1c[nH]c2ccccc12)NC(=O)[C@@H]1CCCN1C(=O)[C@H](CCCNC(=N)N)NC(=O)[C@H](CC(C)C)NC(C)=O)C(=O)N[C@@H](CC(N)=O)C(N)=O [Peptide 14] (Ac-LRPWHAARHPYLPIN-NH2)
 | > 10000 | CC[C@H](C)[C@H](NC(=O)[C@@H]1CCCN1C(=O)[C@H](CC(C)C)NC(=O)[C@H](Cc1ccc(O)cc1)NC(=O)[C@@H]1CCCN1C(=O)[C@H](Cc1c[nH]cn1)NC(=O)[C@H](CCCNC(=N)N)NC(=O)[C@H](C)NC(=O)[C@H](C)NC(=O)[C@H](Cc1c[nH]cn1)NC(=O)[C@H](Cc1c[nH]c2ccccc12)NC(=O)[C@@H]1CCCN1C(=O)[C@H](CCCNC(=N)N)NC(C)=O)C(=O)N[C@@H](CC(N)=O)C(N)=O [Peptide 15] (Ac-RPWHAARHPYLPIN-NH2)
 | > 10000 | CC(=O)N[C@H]1CSCc2cccc(c2)CSC[C@@H](C(=O)N[C@@H](CC(N)=O)C(N)=O)NC(=O)[C@@H]2CCCN2C(=O)[C@H](CC(C)C)NC(=O)[C@H](Cc2ccc(O)cc2)NC(=O)[C@@H]2CCCN2C(=O)[C@H](Cc2c[nH]cn2)NC(=O)[C@H](CCCNC(=N)N)NC(=O)[C@H](C)NC(=O)[C@H](C)NC(=O)[C@H](Cc2c[nH]cn2)NC(=O)[C@H](Cc2c[nH]c3ccccc23)NC(=O)[C@@H]2CCCN2C(=O)[C@H](CCCNC(=N)N)NC1=O [Peptide 16] (Ac-CRPWHAARHPYLPCN-NH2; linker 1-14 via mXylylene)
 | > 10000 | CC(=O)N[C@H]1CSCc2ccc(cc2)CSC[C@@H](C(=O)N[C@@H](CC(N)=O)C(N)=O)NC(=O)[C@@H]2CCCN2C(=O)[C@H](CC(C)C)NC(=O)[C@H](Cc2ccc(O)cc2)NC(=O)[C@@H]2CCCN2C(=O)[C@H](Cc2c[nH]cn2)NC(=O)[C@H](CCCNC(=N)N)NC(=O)[C@H](C)NC(=O)[C@H](C)NC(=O)[C@H](Cc2c[nH]cn2)NC(=O)[C@H](Cc2c[nH]c3ccccc23)NC(=O)[C@@H]2CCCN2C(=O)[C@H](CCCNC(=N)N)NC1=O [Peptide 17] (Ac-CRPWHAARHPYLPCN-NH2; linker 1-14 via pXylylene)
 | > 10000 | CC(=O)N[C@H]1CSCc2cccc(c2)CSC[C@@H](C(=O)N[C@@H](CC(N)=O)C(N)=O)NC(=O)[C@@H]2CCCN2C(=O)[C@H](CC(C)C)NC(=O)[C@H](Cc2ccc(O)cc2)NC(=O)[C@@H]2CCCN2C(=O)[C@H](Cc2c[nH]cn2)NC(=O)[C@H](CCCNC(=N)N)NC(=O)[C@H](C)NC(=O)[C@H](C)NC(=O)[C@H](Cc2c[nH]cn2)NC(=O)[C@H](Cc2c[nH]c3ccccc23)NC(=O)[C@@H]2CCCN2C1=O [Peptide 18] (Ac-CPWHAARHPYLPCN-NH2; linker 1-13 via mXylylene)
